{
  "source": "patent US20110195910A1",
  "about": "“USE OF TOCOTRIENOL COMPOSITION FOR THE PREVENTION OF CANCER” (DAVOS LIFE SCIENCE PTE. LTD., priority 2008, published 2011)",
  "key": {"MGH-U1 cells": {"system": "MGH-U1 cells", "experiment": "Western blotting of CD44, MGH-U1 cells", "format": "cell-based", "conditions": "bladder cancer cells", "experimental": "(§1) 5.1.5 Western blotting was carried out as described above under 1.1.5. The membrane was incubated with primary antibodies directed against CD133 (Miltenyi Biotec, Auburn, Calif.), Bcl-2, PARP, cleaved caspase 3, 7, 9 (Cell Signaling, Technology Inc, Beverly, Mass.), CD44 and β-actin (Santa Cruz Biotechnology, Santa Cruz, Calif.). After washing with TBS-T, the membrane was incubated with secondary antibody against either mouse or rabbit IgG and the signals were visualized using ECL plus western blotting system (Amersham, Piscataway, N.J.)."}, "MDA-MB-231 cells": {"system": "MDA-MB-231 cells", "experiment": "Matrigel-invasion assay, MDA-MB-231 cells", "format": "cell-based, human", "conditions": "MDA-MB-231, 24 hrs", "experimental": "(§2) 1.1.4 Matrigel-invasion assay—Matrigel-invasion assay was performed according to a previously published method with modifications. Briefly, cells were pre-incubated in a serum-free RPMI 1640 medium with or without γ-T3 isomers for 24 hrs. Cells (2.5×10^5) resuspended in 500 μl of serum-free RPMI 1640 containing 0.1% bovine serum albumin (BSA) were then added to the upper chamber of a 8 μm pore size insert (Millipore, Bedford, Mass.) manually coated with Matrigel (0.5 mg/ml) (BD Bioscience, Bedford, Mass.). Five hundred μl of invasion buffer containing fibronectin (10 μg/ml) and RPMI 1640 supplemented with 10% FCS were added in the lower chamber as a chemo-attractant. Cells were incubated at 37° C. for 24 hrs in 5% CO2 humidified conditions. At the end of incubation period, inserts were stained with Diff-Quick staining solution (Fischer Scientific). Non-invaded cells on the inside of the insert were scraped off with a cotton swab. Cell invasions were then examined by a phase-contrast microscope. The invaded cells were extracted using extraction buffer (Millipore, Bedford, Mass.) and the cell number was estimated based on absorbance at 595 nm.\n3.1.7 Flow cytometry was carried out as described above under item 1.1.3. Matrigel-invasion assay was carried out as described above under item 1.1.4. Western blotting was carried out as described above under item 1.1.5."}, "[1]": {"experiment": "Pharmacokinetics of γ-tocotrienol in mice (serum, HPLC)", "format": "in vivo, C57BL/6 black mice", "conditions": "1 mg γ-T3 i.p.", "experimental": "4.1.4 Pharmacokinetics of γ-Tocotrienol in Mice—C57BL/6 black mice were purchased from The Jackson Laboratory (Bar Harbor, Me., USA). Forty 5-week old mice were given a single dose i.p injection containing 1 mg of γ-T3. Five mice were sacrificed at different time points (10 min, 30 min, 1 h, 3 h, 6 h, 24 h, 48 h and 72 h). Blood samples were collected through cardiac bleeding. To isolate the serum, blood samples were incubated at room temperature for 30 min, followed by centrifugation at 4400 rpm, 4° C. for 30 min. γ-T3 concentration in serum was analyzed using HPLC method below.\n4.1.6 γ-Tocotrienol Extraction from Serums, Tumors and Organs—Serums were thawed and sonicated in an ultrasonic bath (Lab Companion, Vernon Hills, Ill., USA) for 5 min, followed by vortexing for 10 s. 100 μl of serum was transferred into IWAKI Pyrex glass tube (Jawa Tengah, Indonesia) containing 900 μl of water. For the tumors and organs preparation, the tissues were homogenized in 1 ml of water using borosilicate glass homogenizer (Fisher scientific, Pittsburgh, Pa.), followed by transferring to Pyrex glass tube. 5 μl of δ-T3 with purity 99% (100 mg of δ-T3 dissolved in 1 ml of ethanol) was used as an internal standard solution and was spiked into the mixture. The tube was vortexed for 10 s and sonicated for 2 min. 4 ml of the butylated hydroxytoluene (BHT) solution (5 mg of BHT in 100 ml of heptane) was added into the tube to minimize the oxidation of target analytes. Liquid-liquid extraction was performed by vortexing vigorously for 10 s. After liquid-liquid extraction, the tubes were centrifuged at 4000 rpm for 5 min in Heraeus Multifuge 3-SR Centrifuge (Newport Pagnell, Buckinghamshire, UK). 3.9 ml of the organic layer was transferred into another Pyrex tube. […]\n4.1.7 Determination of γ-Tocotrienol level by high performance liquid chromatography—A normal phase of HPLC method was performed as a modification of procedures known in the art. […] The absorbance of γ-T3 was monitored with a […] set at an excitation wavelength of 290 nm and emission wavelength of 360 nm."}, "PC-3 cells [2]": {"system": "PC-3 cells", "experiment": "Matrigel-invasion assay, PC-3 cells", "format": "cell-based, human", "conditions": "γ-T3 at IC50, 24 hrs", "experimental": "as §2\n2.1.4 Flow cytometry was carried out as described above under item 1.1.3. Matrigel-invasion assay was carried out as described above under item 1.1.4. Western blotting was carried out as described above under item 1.1.5."}, "PC-3 cells [3]": {"system": "PC-3 cells", "experiment": "CSC marker and signalling expression in PC-3 cells (western blotting, flow cytometry, RT-PCR)", "format": "cell-based", "experimental": "as §1\n5.1.6 Semi-quantitative RT-PCR—Total RNA was isolated using TRIZOL® reagent (Invitrogen, Carlsbad, Calif.) following the manufacturer's instruction. cDNA was synthesized by using SuperScript First-Strand Synthesis System for RT (Invitrogen, Carlsbad, Calif.) and PCR was carried out with GeneAmp® PCR System 9700 (Applied Biosystems, Foster City, Calif.). The primers sequence and PCR condition for RT-PCR of CD133 were previously described. The amounts of mRNA were quantified relative to GAPDH.\n5.1.8 Flow cytometry—Flow cytometry analysis of the CD44 positive cells were performed with procedure known in the art. Briefly, cells were incubated in PBS containing 2% FBS with PE-conjugated anti-human CD44 antibody. Isotype-matched mouse immunoglobulins served as controls. Samples were then analyzed using a FACS Calibur flow cytometer and CellQuest software (BD Biosciences, San Jose, Calif., USA)."}},
  "data": [
    {"smiles": "CC(C)=CCC/C(C)=C/CC/C(C)=C/CCC1(C)CCc2cc(O)c(C)c(C)c2O1", "note": "(centres unmarked) [γ-T3, 7,8-dimethyltocotrienol]", "values": [
      {"measurement": "CD44 expression", "setting": "MGH-U1 cells", "result": "downregulate CD44 expression"},
      {"measurement": "invasion capability compared to untreated control", "setting": "MDA-MB-231 cells", "result": "at least 2 -time lower"},
      {"measurement": "time the plasma level remains constant", "setting": "[1]", "result": "at least 72 hours"},
      {"measurement": "plasma γ-T3 level, starting value", "setting": "[1]; before the fall", "result": 260, "unit": "ppm"},
      {"measurement": "plasma γ-T3 level", "setting": "[1]; within 30 min after administration", "result": 50, "unit": "ppm"},
      {"measurement": "invasion capability compared to untreated control", "setting": "PC-3 cells [2]", "result": "at least 2.5 -time lower"},
      {"measurement": "population of CD44+ PC-3 cells (flow cytometry)", "setting": "PC-3 cells [3]; 5 μg/ml, 24 hrs", "result": "found to decrease"},
      {"measurement": "CD133 mRNA level", "setting": "PC-3 cells [3]; 2.5 and 5 μg/ml, 48 and 72 hrs", "result": "decrease of CD133 mRNA"},
      {"measurement": "protein expression of CD44 (CD133 similar)", "setting": "PC-3 cells [3]; PC-3, 2.5 & 5 μg/ml, 24, 48 and 72 hours", "result": "significantly down regulated"},
      {"measurement": "expression of AKT", "setting": "PC-3 cells [3]; low dose, 0 to about 5 μg/ml", "result": "downregulated"},
      {"measurement": "expression of Oct3/4 and Nestin", "setting": "PC-3 cells [3]; low dose, 0 to about 5 μg/ml", "result": "upregulated"}
    ]}
  ]
}
